The results in this text go back to BindingDB's records for doi:10.1021/jm900194w (The Hong Kong Polytechnic University, 2009).

Each structure is given as a SMILES string.

This test in a line: Reversal of MRP1-mediated doxorubicin-resistance in human HeLa-T5 cells assessed as reduction of doxorubicin IC50 percent by half.

On to `Cc1onc2c1c(=O)n([C@H]1CCC[C@@H](CNC(=O)c3ccccc3)C1)c1cccc(Cl)c21` (racemic) [N-(((1R,3S)-3-(9-chloro-3-methyl-4-oxoisoxazolo[4,3-c]quinolin-5(4H)-yl)cyclohexyl)methyl)benzamide], for which the EC50 (usually the concentration needed to bring the measured effect to its halfway point) came out at 93 nM.
